For assay [1], the system named is BJ. Put plainly: BJ-TERT fibroblast viability loss – cell-based, RAS-independent, luminescence, dose response (AID 1933). Type of assay: functional. The following applies: Homo sapiens.
Assay [2] has as its system BJ. Put plainly: cells. Type of assay: functional, cell-based. The following applies: Homo sapiens.
Assay [3] in a line: DRD fibroblast viability loss – cell-based, non-viral oncogenic, luminescence, dose response (AID 1934). The assay is classed as functional. The conditions noted are these: Homo sapiens.
The nature of assay [4]: alpha-synuclein stem-loop luciferase translation blockers – H4 neuroglioma cells, luminescence, confirmation (AID 1988). The assay is classed as functional, cell-based.
Assay [5] in a line: luciferase reporter signal suppression in cells – H4 neuroglioma cells, luminescence, dose response (AID 1990). Type of assay: functional, cell-based.
Assay [6] deals with BJ. Briefly: BJ-TERT-LT-ST fibroblast viability loss – cell-based, RAS-independent, luminescence, dose response (AID 1935).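 Also: BJ fibroblasts immortalized with TERT plus LT and ST oncogenes.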 Type of assay: functional. The following applies: Homo sapiens.
Assay [7] in a line: Luminescence Cell-Based Dose Response HTS to Identify Inhibitors of 5'UTR Stem-Loop Driven Prion Protein mRNA Translation in H4 Neuroglioblastoma Cells. [Related pubchem assays: 1827 (Project Summary), 1813 (Primary HTS)]. Type of assay: functional.
For assay [8], the target named is T1, Calpain-2 catalytic subunit (Sus scrofa, UniProt P43367).
T1 sequence (P43367 whole entry): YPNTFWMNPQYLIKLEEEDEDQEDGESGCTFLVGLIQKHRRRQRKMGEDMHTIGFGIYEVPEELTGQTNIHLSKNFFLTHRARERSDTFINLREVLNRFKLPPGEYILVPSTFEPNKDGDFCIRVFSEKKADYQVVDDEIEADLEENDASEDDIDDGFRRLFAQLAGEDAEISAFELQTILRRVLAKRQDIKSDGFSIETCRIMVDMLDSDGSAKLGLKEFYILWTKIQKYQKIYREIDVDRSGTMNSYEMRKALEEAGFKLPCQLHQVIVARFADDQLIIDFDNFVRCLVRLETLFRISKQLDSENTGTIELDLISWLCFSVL
Put plainly: m-calpain protease blockers, concentration series – biochemical, fluorogenic peptide substrate, dose response (AID 1420). The assay is classed as functional.

The nature of assay [9]: cells. The assay is classed as functional, cell-based.
The nature of assay [10]: cells. Type of assay: functional, cell-based. This is another data set of the same source.
The nature of assay [11]: viability of HCT116 lacking mutant beta-catenin – cell-based, human colon tumor, dose response (AID 1045).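 Also: HCT116 colon tumor cells with beta catenin knocked out; cells exposed to compound for 60 hours.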 The assay is classed as functional.
Assay [12] deals with T2, Ubiquitin-conjugating enzyme E2 N (Homo sapiens, UniProt P61088).
T2 sequence (P61088 whole entry): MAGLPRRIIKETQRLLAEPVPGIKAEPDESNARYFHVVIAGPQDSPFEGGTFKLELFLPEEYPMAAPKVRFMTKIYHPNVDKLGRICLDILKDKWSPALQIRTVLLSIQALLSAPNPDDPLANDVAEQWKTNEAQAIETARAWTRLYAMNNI
Type of assay: functional.

The nature of assay [13]: NIH3T3 cell viability loss – ATP luminescence, mouse fibroblasts, counter-screen, dose response (AID 2010).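 Also: cells exposed to compound for about 90 hours before reading.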 Type of assay: functional, cell-based.
Assay [14] can be described thus: Trypanosoma cruzi growth suppression in host cells – NIH3T3 host cells, beta-gal luminescence, confirmation (AID 2044).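 Also: intracellular parasites grown in NIH/3T3 mouse fibroblasts as host cells; luminescent beta-galactosidase reporter signal from transgenic T. cruzi replicating inside host cells; inhibitors lower the luminescence signal.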 Type of assay: functional, cell-based.
A short description of assay [15]: viability of PTEN-deleted HCT116 cells – cell-based, HCT116 PTEN knockout, dose response (AID 1047).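 Also: HCT116 colon tumor cells with PTEN knocked out; cells exposed to compound for 60 hours before readout; potency for loss of cell viability measured by luminescence.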 The assay is classed as functional.
Assay [16] has as its target T3, Fatty acid synthase (Homo sapiens, UniProt P49327). Briefly: inhibition of human FAS-TE enzyme activity – biochemical, kinetic fluorescence intensity, dose response (AID 624326).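 Also: rate of fluorescence rise from hydrolysis of a fluorogenic O-methyl fluorescein ester substrate.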 The assay is classed as functional.
Assay [17] addresses T3, Fatty acid synthase. Put plainly: inhibition of human FAS-TE enzyme activity – biochemical, endpoint fluorescence intensity, uHTS hits, dose response (AID 624327).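 Also: fluorescence from hydrolysis of an O-methyl fluorescein acyl ester substrate by the enzyme.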 The assay is classed as functional.
Assay [18] can be described thus: A cytotoxicity screen of small molecule inhibitors of the PhoP region in Salmonella typhi identified in the primary screen. [Related pubchem assays: 1850, 1864, 1985 ]. Type of assay: functional.
In assay [19] the test system is INS1. Briefly: INS-1E survival protection against cytokine death – cell-based, luminescence, retest, dose response (AID 449756).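 Also: cell death triggered by IL-1 beta plus TNF-alpha plus IFN-gamma mixture; protective hits raise ATP signal compared with cytokine alone wells.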 The assay is classed as functional. The conditions noted are these: Rattus norvegicus.
In assay [20] the target is T4, Leucine aminopeptidase (Plasmodium falciparum 3D7, UniProt Q8IL11).
T4 sequence (Q8IL11 whole entry): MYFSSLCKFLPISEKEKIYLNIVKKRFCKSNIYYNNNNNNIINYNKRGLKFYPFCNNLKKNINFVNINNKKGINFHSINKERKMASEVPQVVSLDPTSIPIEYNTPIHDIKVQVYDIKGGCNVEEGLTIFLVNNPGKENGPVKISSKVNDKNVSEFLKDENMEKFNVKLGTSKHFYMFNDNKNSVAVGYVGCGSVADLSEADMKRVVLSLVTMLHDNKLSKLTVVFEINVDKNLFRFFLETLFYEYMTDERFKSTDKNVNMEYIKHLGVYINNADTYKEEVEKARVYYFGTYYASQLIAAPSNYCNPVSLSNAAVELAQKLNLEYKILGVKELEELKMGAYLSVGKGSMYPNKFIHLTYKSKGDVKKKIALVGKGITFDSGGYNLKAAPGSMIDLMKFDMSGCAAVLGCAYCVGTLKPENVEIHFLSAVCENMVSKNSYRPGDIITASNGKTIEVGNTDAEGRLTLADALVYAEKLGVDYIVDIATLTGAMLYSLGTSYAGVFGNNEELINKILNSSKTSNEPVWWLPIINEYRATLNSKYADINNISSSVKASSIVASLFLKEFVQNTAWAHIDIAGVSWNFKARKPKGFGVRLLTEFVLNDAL
Put plainly: P. falciparum M17LAP inhibitors, primary screen, biochemical, fluorogenic H-Leu-NHMec substrate, 1536-well (AID 1619). The assay is classed as functional.

Assay [21] addresses T5, Heat shock factor protein 1 (Mus musculus, UniProt P38532).
T5 sequence (P38532 whole entry): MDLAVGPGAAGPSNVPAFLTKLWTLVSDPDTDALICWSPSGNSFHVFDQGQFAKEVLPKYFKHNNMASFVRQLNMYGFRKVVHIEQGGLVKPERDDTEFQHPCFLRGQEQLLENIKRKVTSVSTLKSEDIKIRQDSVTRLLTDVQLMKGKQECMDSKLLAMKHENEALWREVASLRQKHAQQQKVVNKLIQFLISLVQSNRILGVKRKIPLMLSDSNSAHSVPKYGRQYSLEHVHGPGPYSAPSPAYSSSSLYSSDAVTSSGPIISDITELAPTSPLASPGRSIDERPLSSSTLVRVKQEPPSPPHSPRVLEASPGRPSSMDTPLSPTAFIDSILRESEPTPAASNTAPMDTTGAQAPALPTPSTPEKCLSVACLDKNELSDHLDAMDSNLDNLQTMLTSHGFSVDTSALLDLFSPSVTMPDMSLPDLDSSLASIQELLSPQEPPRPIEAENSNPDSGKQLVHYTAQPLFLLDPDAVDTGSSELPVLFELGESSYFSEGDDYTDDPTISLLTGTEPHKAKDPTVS
Put plainly: enhancement of HSF1-driven luciferase signal – cell-based, NIH3T3, luminescence, dose retest, confirmation (AID 435004).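 Also: stress induced by proteasome inhibitor MG132 added 30 min after compound; luciferase reporter driven by HSF1 response element in NIH3T3 cells; actives raise luminescence as potentiators of the MG132 stress response.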 The assay is classed as functional.

Each structure is given as a SMILES string. Calls of active or inactive are those of the source.

T3 sequence (P49327 whole entry): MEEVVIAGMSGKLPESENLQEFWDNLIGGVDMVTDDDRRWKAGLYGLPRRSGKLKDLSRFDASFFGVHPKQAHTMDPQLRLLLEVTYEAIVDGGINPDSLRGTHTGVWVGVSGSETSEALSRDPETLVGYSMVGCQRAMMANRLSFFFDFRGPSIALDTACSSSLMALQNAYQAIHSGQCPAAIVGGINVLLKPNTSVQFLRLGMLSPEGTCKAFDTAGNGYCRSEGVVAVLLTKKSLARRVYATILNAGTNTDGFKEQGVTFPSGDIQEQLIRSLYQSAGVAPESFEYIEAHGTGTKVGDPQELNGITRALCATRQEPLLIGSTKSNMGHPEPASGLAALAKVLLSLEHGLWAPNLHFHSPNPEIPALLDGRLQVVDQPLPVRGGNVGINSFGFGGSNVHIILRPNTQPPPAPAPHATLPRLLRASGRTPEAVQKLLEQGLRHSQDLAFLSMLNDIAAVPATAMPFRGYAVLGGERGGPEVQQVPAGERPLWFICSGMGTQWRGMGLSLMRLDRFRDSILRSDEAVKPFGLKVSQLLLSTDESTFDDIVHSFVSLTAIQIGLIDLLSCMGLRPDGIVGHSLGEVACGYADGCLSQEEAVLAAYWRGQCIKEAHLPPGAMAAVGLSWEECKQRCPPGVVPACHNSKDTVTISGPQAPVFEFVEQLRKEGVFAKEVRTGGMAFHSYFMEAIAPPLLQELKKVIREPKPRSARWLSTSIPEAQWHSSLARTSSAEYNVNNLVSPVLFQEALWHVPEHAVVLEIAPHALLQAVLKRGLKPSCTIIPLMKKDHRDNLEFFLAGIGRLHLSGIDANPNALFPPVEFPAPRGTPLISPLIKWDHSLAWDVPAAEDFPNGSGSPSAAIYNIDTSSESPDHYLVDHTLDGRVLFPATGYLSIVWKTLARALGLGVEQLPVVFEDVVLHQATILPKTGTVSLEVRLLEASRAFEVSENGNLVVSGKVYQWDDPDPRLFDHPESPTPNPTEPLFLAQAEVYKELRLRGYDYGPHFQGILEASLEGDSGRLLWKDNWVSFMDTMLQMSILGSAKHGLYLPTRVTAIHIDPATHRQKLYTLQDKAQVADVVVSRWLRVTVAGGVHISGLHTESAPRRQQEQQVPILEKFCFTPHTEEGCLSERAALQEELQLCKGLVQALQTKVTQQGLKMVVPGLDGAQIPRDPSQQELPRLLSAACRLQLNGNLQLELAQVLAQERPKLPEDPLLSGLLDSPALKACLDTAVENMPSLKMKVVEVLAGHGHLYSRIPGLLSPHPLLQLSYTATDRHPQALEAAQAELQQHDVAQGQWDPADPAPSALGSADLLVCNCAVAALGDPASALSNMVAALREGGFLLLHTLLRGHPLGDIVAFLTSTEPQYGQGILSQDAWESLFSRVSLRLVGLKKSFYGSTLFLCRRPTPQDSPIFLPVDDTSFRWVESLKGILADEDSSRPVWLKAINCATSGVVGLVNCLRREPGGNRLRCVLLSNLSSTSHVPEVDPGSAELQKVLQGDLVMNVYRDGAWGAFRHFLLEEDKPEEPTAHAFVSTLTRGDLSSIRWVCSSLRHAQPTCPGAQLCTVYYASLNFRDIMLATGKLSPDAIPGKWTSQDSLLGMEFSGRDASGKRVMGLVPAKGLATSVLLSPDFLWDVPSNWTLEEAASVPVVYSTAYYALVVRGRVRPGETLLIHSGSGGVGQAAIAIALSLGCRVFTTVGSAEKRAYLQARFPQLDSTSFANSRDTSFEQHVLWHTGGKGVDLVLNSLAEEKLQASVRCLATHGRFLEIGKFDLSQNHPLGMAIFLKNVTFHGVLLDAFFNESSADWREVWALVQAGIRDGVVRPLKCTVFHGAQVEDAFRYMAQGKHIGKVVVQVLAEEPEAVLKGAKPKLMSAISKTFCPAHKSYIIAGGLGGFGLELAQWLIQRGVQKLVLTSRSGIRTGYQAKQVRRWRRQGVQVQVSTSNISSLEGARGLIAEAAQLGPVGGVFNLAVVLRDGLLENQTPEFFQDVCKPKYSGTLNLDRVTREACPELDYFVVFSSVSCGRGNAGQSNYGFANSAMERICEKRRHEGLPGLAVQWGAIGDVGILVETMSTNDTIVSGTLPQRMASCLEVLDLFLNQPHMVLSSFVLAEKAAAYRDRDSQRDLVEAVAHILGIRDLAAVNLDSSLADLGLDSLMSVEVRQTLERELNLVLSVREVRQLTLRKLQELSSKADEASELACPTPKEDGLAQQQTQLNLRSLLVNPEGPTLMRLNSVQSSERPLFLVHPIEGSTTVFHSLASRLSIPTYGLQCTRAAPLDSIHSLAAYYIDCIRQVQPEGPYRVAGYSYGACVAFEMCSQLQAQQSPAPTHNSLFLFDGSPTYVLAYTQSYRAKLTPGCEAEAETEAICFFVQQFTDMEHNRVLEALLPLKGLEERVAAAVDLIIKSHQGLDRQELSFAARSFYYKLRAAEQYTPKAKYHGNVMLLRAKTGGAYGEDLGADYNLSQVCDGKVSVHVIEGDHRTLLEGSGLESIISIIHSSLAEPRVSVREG

As a reminder, the EC50 is the concentration giving half of the maximal effect. Take `CCN(CC(=O)NCc1ccc(F)cc1)C(=O)/C=C/c1ccc(OC)c(S(=O)(=O)NC(C)C)c1`: the EC50 in assay [1] is 9.24 µM (inconclusive); in assay [2], 13.4 µM (active); in assay [3], 13.7 µM (inconclusive); in assay [4], 9.81 µM (active); in assay [5] it was > 120 µM (not active); in assay [6] it was 4.34 µM (inconclusive). Besides, in assay [7], the EC50 is listed as > 120 µM (not active).
By IC50 is commonly meant the concentration that inhibits the measured activity by half. As to `O=C(Oc1ccc2c(c1)OCO2)C12CC3CC(CC(C3)C1)C2`, in assay [8], the IC50 is reported as 5.49 µM (not active).
On to `CN(C)c1ccc(CNC(=O)CCS(=O)(=O)c2ccc3c(c2)oc(=O)n3C)cc1`, for which the EC50 in assay [9] and in [10] was > 350 µM (not active) each time.
For `CCc1ccc(OCC(O)CN2CCC(CN3C(=O)c4cccc5cccc(c45)C3=O)CC2)cc1` (configuration not stated), the EC50 in assay [11] was 5.43 µM (active); in [13] it was > 60 µM (not active); in assay [14] it was 1.84 µM (active); in [15], 6.53 µM (active). In addition, the IC50 in [12] is > 20 µM (inactive).
As for `O=C(CN(Cc1ccc(F)cc1)C(=O)CCC(=O)Nc1nccs1)NCC1CCCO1` (configuration not stated), the values for the EC50 in [9] and in assay [10] were > 350 µM (not active) and 35.3 µM (active), respectively.
For the compound `CC(C(=O)NCCC1=CCCCC1)c1ccc([N+](=O)[O-])cc1` (configuration not stated), the IC50 in [16] is 5.99 µM (active); in assay [17], 5.76 µM (active).
With `S=C(Nc1ccccc1Cl)N(Cc1ccccc1)Cc1ccccn1`, in [18], the EC50 was > 50 µM (active).
Turning to `c1ccc(CN2CCC(N3CCN(Cc4ccc5c(c4)OCO5)CC3)CC2)cc1`, the EC50 in assay [18] was > 50 µM (active).
For `COc1ccc([N+](=O)[O-])cc1NC(=O)C(C)OC(=O)/C=C/c1ccco1` (configuration not stated), the values for the IC50 in assay [16] and in [17] were 6.45 µM (active) and 3.26 µM (active), respectively.
What is called AC50 is the concentration at which the activity in the assay is half-maximal. Turning to `CCOC(=O)c1c(NC(=O)c2cc(-c3ccc(Cl)s3)nc3ccccc23)sc(C(N)=O)c1C`, the EC50 is 7.35 µM (active) in [11] and 5.74 µM (active) in assay [15]. Also, in assay [19], the half-maximal activity concentration (AC50) was 7.98 µM (active).
Take `Cc1cc(OCC(=O)Nc2ccc3c(c2)OCCO3)cc(C)c1Cl`: the EC50 in assay [9] and in assay [10] was > 350 µM (not active) each time.
With `O=C(O)CC12C[C@H]3C[C@@H](C1)CC(n1ncc(N4CCN(c5ccccc5)CC4)c(Cl)c1=O)(C3)C2`, the IC50 in assay [20] is 152 µM (active). Also, the EC50 in assay [21] was > 260 µM (inactive).
Turning to `CCCCNC(=O)CCC(=O)Nc1ccc2nc(N3CCC(C)CC3)cc(C)c2c1`, in assay [18], the EC50 was > 50 µM (active).
`O=C(CN1C(=O)CCSc2ccccc21)Nc1ccc2c(c1)OCCO2`: the IC50 in assay [20] was 16.1 µM (active).

The record behind these values is ChEMBL document CHEMBL1201862, “PubChem BioAssay data set” (2004).
